PubChem BioAssay (NCI)
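Grown in 96-well plates, cells were treated for 48 hours with each compound at five concentrations. Insufficient inhibition: endpoint recorded as highest concentration tested. The concentration for full growth arrest is given as TGI.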

Legend:
Assay in all cases: NCI-60 cell line screen, 48 h
LXFL 529 NSCLC = system: LXFL 529 NSCLC
HOP-18 NSCLC = system: HOP-18 NSCLC
DLD-1 colon = system: DLD-1 colon
RXF-631 renal = system: RXF-631 renal
XF 498 CNS = system: XF 498 CNS

SMILES: COc1ccc2c(c1)C=C(C(C)(C)C)NS2(=O)=O
- TGI (LXFL 529 NSCLC): > 100 µM
- TGI (HOP-18 NSCLC): > 100 µM
- TGI (DLD-1 colon): > 100 µM
- TGI (RXF-631 renal): > 100 µM

SMILES: CCOc1ncnc2ccc(Cl)c(I)c12
- TGI (LXFL 529 NSCLC): > 100 µM
- TGI (DLD-1 colon): > 100 µM
- TGI (XF 498 CNS): > 100 µM

SMILES: COc1ccc(-c2nc(SC)n(C3OC(COC(C)=O)C(OC(C)=O)C(OC(C)=O)C3OC(C)=O)c(=O)c2C#N)cc1 (stereo not drawn)
- TGI (LXFL 529 NSCLC): > 100 µM

SMILES: CC(c1ccccc1)C(O)S(=O)(=O)O (stereo not drawn)
- TGI (LXFL 529 NSCLC): > 100 µM
- TGI (HOP-18 NSCLC): > 100 µM
- TGI (RXF-631 renal): > 100 µM
- TGI (XF 498 CNS): > 100 µM

SMILES: COc1cc(OC)cc(C(=O)Cc2c(C(=O)c3ccccc3)c3ccccc3n2C(=O)c2ccccc2)c1
- TGI (LXFL 529 NSCLC): > 100 µM
- TGI (DLD-1 colon): > 100 µM
- TGI (XF 498 CNS): 73.6 µM

SMILES: COc1ccc2c(c1)c(=O)c1c(NCCCN(C)C)ccc3ncn2c31
- TGI (LXFL 529 NSCLC): 19.8 µM
- TGI (HOP-18 NSCLC): 28.6 µM
- TGI (DLD-1 colon): 17.8 µM
- TGI (XF 498 CNS): 18.9 µM

SMILES: COc1ccc(NS(=O)(=O)c2ccc(N=C3C=C(Nc4ccc(S(=O)(=O)Nc5ccc(OC)nn5)cc4)C(=O)c4ccccc43)cc2)nn1
- TGI (LXFL 529 NSCLC): 57.9 µM
- TGI (HOP-18 NSCLC): 29.7 µM
- TGI (DLD-1 colon): 36.9 µM
- TGI (XF 498 CNS): 54.3 µM
